pIC50: −log10 of the molar value. Values after ≈ are worked out from the molar mass of the structure shown. Read-outs that look alike come from different tables or passages of the source.

One data set in a line: log D measurement (HPLC). Format: physicochemical. The following applies: for chromatographic logD: reverse-phase HPLC, pH 7.5, pH 7.5, HPLC method, read-out: logD7.5; for logD7.5: pH 7.5, HPLC method. As for the experimental part:
log D values at pH 7.5 were recorded using an indirect method for determining hydrophobicity constants by reverse-phase HPLC. A series of compounds with well-known log D values were used for calibration. Test compounds were injected into the same HPLC system. The lipophilicity of compounds was then assessed by comparison to the calibration curve.

Data set [1] addresses T1, USP21 (Homo sapiens, UniProt Q9UK80).
T1 sequence (Q9UK80 1-565): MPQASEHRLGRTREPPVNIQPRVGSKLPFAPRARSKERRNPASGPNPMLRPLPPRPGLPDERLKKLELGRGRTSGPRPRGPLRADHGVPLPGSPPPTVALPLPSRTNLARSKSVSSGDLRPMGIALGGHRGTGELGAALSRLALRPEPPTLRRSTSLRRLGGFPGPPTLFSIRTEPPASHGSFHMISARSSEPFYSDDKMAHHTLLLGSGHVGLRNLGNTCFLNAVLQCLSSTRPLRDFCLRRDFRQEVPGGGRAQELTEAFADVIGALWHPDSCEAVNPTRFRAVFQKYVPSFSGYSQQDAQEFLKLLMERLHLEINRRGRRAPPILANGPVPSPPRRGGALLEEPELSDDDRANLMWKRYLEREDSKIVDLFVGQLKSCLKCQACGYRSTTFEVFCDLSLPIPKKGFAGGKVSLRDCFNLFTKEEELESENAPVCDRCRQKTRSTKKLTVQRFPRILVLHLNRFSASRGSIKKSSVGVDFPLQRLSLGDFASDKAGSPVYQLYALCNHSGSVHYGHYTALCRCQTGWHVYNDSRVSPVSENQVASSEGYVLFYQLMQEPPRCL
Method: The final assay volume was 6 μL. […] First, 2 μL of 1 nM USP21 (or selectivity enzyme) solution was added to the compound plate and preincubated for 15–20 min at room temperature. […] The reaction was stopped by 50 mM citric acid in 25 mM HEPES, pH 7.5, containing 0.01% BSA. […] The USP21 and USP22 were measured with five flashes and USP2 and USP7 in fly mode.

The next data set addresses T2, USP2 (Homo sapiens, UniProt O75604).
T2 construct: His tag
T2 sequence (O75604 259-605): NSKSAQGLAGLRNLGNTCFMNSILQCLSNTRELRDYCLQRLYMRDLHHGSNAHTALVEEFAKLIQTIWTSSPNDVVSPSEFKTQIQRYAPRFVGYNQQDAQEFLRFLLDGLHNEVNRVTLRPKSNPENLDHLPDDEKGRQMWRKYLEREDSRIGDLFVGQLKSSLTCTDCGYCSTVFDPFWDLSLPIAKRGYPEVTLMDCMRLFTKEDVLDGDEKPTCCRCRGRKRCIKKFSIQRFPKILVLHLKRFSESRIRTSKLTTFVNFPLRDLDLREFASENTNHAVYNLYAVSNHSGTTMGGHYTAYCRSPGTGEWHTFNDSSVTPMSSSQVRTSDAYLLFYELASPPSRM
In words: hUSP2 Ub-rhodamine 110 assay. The following applies: for pIC50: arithmetic means of multiple measurements, read-out: IC50 hUSP2 Ub-Rhod. In kind it is biochemical. As for the experimental part: The final assay volume was 6 μL.

Data set [2] addresses T1, USP21. The source holds these as a separate data set.
Method: To this end, we developed a USP21 activity assay that is based on the deubiquitination of a STING-derived peptide (a USP21-specific substrate[17],[18]) by purified recombinant human full-length USP21 using time-resolved fluorescence resonance energy transfer (TR-FRET) technology (referred to as a homogeneous time-resolved fluorescence (HTRF)-assay, for details see the Supporting Information).[39]
All substrate and enzyme solutions were diluted in an assay buffer. […] Incubation time was 15–20 min at room temperature. […] The stop solution (DUB inhibitor PR619, Abcam) was prepared in 25 mM HEPES, pH 7.5 (Alfa Aesar) containing 0.01% BSA and then left for 10 min at room temperature before filtering with a 0.2 μM PES Membrane (Thermo Fisher). The reaction was stopped with the addition of 2 μL of 200 μM PR619. […] The plates were measured on the ViewLux in screening or PHERAstar FSX in compound profiling. […] The number of flashes per well was set to 3. All of the experimental data were plotted using Genedata analysis. The Z′-factor and S/B of the assay were >0.7 and ∼2, respectively.
The target in data set [3] is T3, C-terminal HiBiT-tagged USP21 (Homo sapiens, UniProt Q9UK80).
T3 construct: expressed in transfected cells; host or cells: HEK293T
T3 sequence (Q9UK80 1-565): T1 sequence (Q9UK80 1-565)
In words: USP21 HiBiT CETSA. In kind it is cell-based. To be noted: 49 °C, HEK293T cells. The protocol:
In particular, we utilized a HiBiT CETSA assay format[42],[43] conducted in intact HEK293T cells. Cells were transfected with USP21 fused to a small proluminescent NanoLuc HiBiT tag, which, when complemented with the Large BiT NanoLuc fragment, produces a quantifiable luminescence signal.
HEK293T cells were seeded in a six-well plate at 8 × 10^5 cells/well in 2 mL of DMEM supplemented with 10% FBS, penicillin (100 U/mL), and streptomycin (100 μg/mL) and transfected 4 h after seeding using an X-tremeGENE HP transfection reagent, following the manufacturer’s instructions with a total of 2 μg of plasmid constructs (C-terminally tagged USP21 HiBiT and empty pCDNA3.1 vector). […] The breathable paper adhesive film was then replaced with a PCR adhesive film, and cells were heated at indicated temperatures in an Applied Biosystems VeritiPro thermal cycler for 3 min, followed by 3 min incubation at rt before the addition of LgBiT solution (200 nM LgBiT, 2% NP-40, protease inhibitors (Roche cOmplete, ethylenediaminetetraacetic acid (EDTA)-free Protease Inhibitor) in OptiMEM no phenol red (Gibco)) to lyse cells.
A general note: The HiBiT peptide binds its large partner to form an active luciferase.

Another data set is described as follows: Aqueous solubility. Format: physicochemical. The following applies: PBS pH 6.5, pH 6.5, PBS pH 6.5. The protocol: Test compounds were applied as DMSO solutions or directly from powder. After the addition of the buffer, solutions were shaken at rt for 24 h. The undissolved material was removed by filtration or centrifugation. The compound dissolved in the supernatant was quantified by HPLC-UV or HPLC-MS/MS.

The next data set deals with NF-κB activation. In words: NF-κB reporter assay. Format: cell-based. To be noted: HEK293T cells, up to 10 μM. As for the experimental part:
Yang and colleagues reported that USP21 inhibition induces NF-κB activation by preventing deubiquitination of RIP1.[15] K63 ubiquitinated RIP1 is required for NF-κB activation, and thus USP21-mediated deubiquitination of RIP1 shuts down the NF-κB pathway.
Four hours after replating, cells were treated with compounds or DMSO (note: DMSO concentrations were kept consistent across all cells). Promega Dual-Luciferase Reporter Assay kit was then used to prepare samples for Firefly and Renilla signal measurement on a CLARIOstar microplate reader (BMG) 20 h after compound treatment. Relative luciferase units were calculated by normalizing the Firefly signal to the background Renilla signal, followed by normalization to DMSO controls of wild-type USP21.

Another data set in a line: in vitro. Format: in vitro ADME. To be noted: human, Caco-2, pH 7.2. As for the experimental part:
Caco-2 cells [purchased from the German Collection of Microorganisms and Cell Cultures (DSMZ)] were seeded at a density of 4.5 × 10^4 cells/well on 24-well insert plates [0.4 μm pore size, 0.3 cm^2 (Costar)] and grown for 13–15 days in DMEM medium supplemented with 10% fetal calf serum (FCS), 1% GlutaMAX (100×, Gibco), 100 U/mL penicillin, 100 μg/mL streptomycin (Gibco), and 1% nonessential amino acids (100×, Thermo Fischer Scientific). […] The medium was changed every 2–3 days.
The bidirectional transport assay for the evaluation of Caco-2 permeability was undertaken in 24-well insert plates using a robotic system (Tecan). Before the assay was run, the culture medium was replaced by a transport medium (FCS-free HEPES carbonate transport buffer pH 7.2). For the assessment of monolayer integrity, the transepithelial electrical resistance (TEER) was measured. Only monolayers with a TEER of at least 400 Ω·cm^2 were used. Test compounds were pre-dissolved in DMSO and added either to the apical or basolateral compartment at a final concentration of 2 μM. The evaluation was performed in triplicate. […] The efflux ratio (ER) basolateral (B) to apical (A) was calculated by dividing Papp B–A by Papp A–B.

Consider `COCC(NC(=O)C1CCCC1)C(=O)Nc1nnc(Cc2ccc([N+](=O)[O-])cc2)s1` (centres unmarked) [Compound 4, COCC(NC(=O)C1CCCC1)C(=O)Nc2nnc(Cc3ccc(cc3)[N+](=O)[O-])s2], for which the chromatographic logD in the data set “log D measurement (HPLC)” was 2.4.

One may read the pIC50 as the IC50 on a negative log10 scale, so that one unit is a factor of ten. Consider `COCC(NC(=O)c1ccccc1)C(=O)Nc1nnc(Cc2ccc([N+](=O)[O-])cc2)s1` (centres unmarked) [Compound 5, COCC(NC(=O)c1ccccc1)C(=O)Nc2nnc(Cc3ccc(cc3)[N+](=O)[O-])s2], for which the pIC50 at USP21 [1] is below 4.70; at USP2 it was below 4.60; against USP21 [2], 4.93. The chromatographic logD in “log D measurement (HPLC)” came to 2.3.

For `COCC(NC(=O)C(C)C)C(=O)Nc1nnc(Cc2ccc([N+](=O)[O-])cc2)s1` (centres unmarked) [Compound 6, COCC(NC(=O)C(C)C)C(=O)Nc1nnc(Cc2ccc(cc2)[N+](=O)[O-])s1], the pIC50 at USP21 [1], on USP2 and against USP21 [2] was below 4.60 throughout. In “log D measurement (HPLC)”, the chromatographic logD was 2.

Regarding `COCC(NC(=O)C1CCCCC1)C(=O)Nc1nnc(Cc2ccc([N+](=O)[O-])cc2)s1` (centres unmarked) [Compound 7, COCC(NC(=O)C1CCCCC1)C(=O)Nc2nnc(Cc3ccc(cc3)[N+](=O)[O-])s2], on USP2, the pIC50 was below 4.60. Further, the chromatographic logD in “log D measurement (HPLC)” amounted to 2.6.

Take `COCC(NC(=O)C1CCOCC1)C(=O)Nc1nnc(Cc2ccc([N+](=O)[O-])cc2)s1` (centres unmarked) [Compound 8, COCC(NC(=O)C1CCOCC1)C(=O)Nc2nnc(Cc3ccc(cc3)[N+](=O)[O-])s2]: the pIC50 against USP21 [1], at USP2 and on USP21 [2] was below 4.60 each time. In addition, the chromatographic logD in “log D measurement (HPLC)” was 1.8.

On to `COCC(NC(=O)C1(C)CCCCC1)C(=O)Nc1nnc(Cc2ccc([N+](=O)[O-])cc2)s1` (centres unmarked) [Compound 9, COCC(NC(=O)C1(C)CCCCC1)C(=O)Nc2nnc(Cc3ccc(cc3)[N+](=O)[O-])s2], for which the pIC50 at USP2 is below 4.60. Besides, the chromatographic logD in “log D measurement (HPLC)” was 2.9.

`COC[C@@H](NC(=O)C1(C)CCCCC1)C(=O)Nc1nnc(Cc2ccc([N+](=O)[O-])cc2)s1` [Compound 10, COC[C@@H](NC(=O)C1(C)CCCCC1)C(=O)Nc2nnc(Cc3ccc(cc3)[N+](=O)[O-])s2]: the pIC50 on USP2 is below 4.60; against USP21 [2], 7.13.

What is called solubility is how much of the substance goes into solution per volume. Consider `COC[C@@H](NC(=O)C1(C)CCCCC1)C(=O)Nc1nnc(Cc2ccc(C#N)cc2)s1` [Compound 11, COC[C@@H](NC(=O)C1(C)CCCCC1)C(=O)Nc2nnc(Cc3ccc(cc3)C#N)s2], for which the “cellular thermal stabilization of USP21 (in words)” value in data set [3] is given as “strong stabilization of USP21”. This molecule registered a solubility at 24 h in “Aqueous solubility” of 126 µM (≈ 55.8 µg/mL). In addition, the “NF-κB activation (in words)” value in the data set with NF-κB activation is “no NF-κB activation up to a concentration of 10 μM”. Further, on USP2, the negative-log IC50 (pIC50) was below 4.60. Moreover, the “selectivity against USP2” value at USP2 (vs USP21) is on record as above 780 fold. Also, in “log D measurement (HPLC)”, the logD7.5 is given as 2.69 and the chromatographic logD worked out at 2.7.

Regarding `COC[C@@H](NC(=O)C1(C)CCCCC1)C(=O)Nc1nc(C)c(Cc2ccc(C#N)cc2)s1` [Compound 12, COC[C@@H](NC(=O)C1(C)CCCCC1)C(=O)Nc2nc(C)c(Cc3ccc(cc3)C#N)s2], the concentration in solution in “Aqueous solubility” (solubility at 24 h) was 19.4 µM (≈ 8.83 µg/mL).

For `COC[C@@H](NC(=O)C1(C)CCCCC1)C(=O)Nc1sc(Cc2ccc(C#N)cc2)nc1C` [Compound 13, COC[C@@H](NC(=O)C1(C)CCCCC1)C(=O)Nc2sc(Cc3ccc(cc3)C#N)nc2C], the values for the pIC50 at USP21 [1] and against USP21 [2] were below 4.60 and 7.19, respectively.

`CCC1(C(=O)N[C@H](COC)C(=O)Nc2nnc(Cc3ccc(C#N)cc3)s2)CCCCC1` [Compound 14, CCC1(CCCCC1)C(=O)N[C@H](COC)C(=O)Nc2nnc(Cc3ccc(cc3)C#N)s2] had a solubility at 24 h in the data set “Aqueous solubility” of 71 µM (≈ 32.4 µg/mL). In addition, the chromatographic logD in “log D measurement (HPLC)” came out at 2.95.

With `COC[C@@H](NC(=O)C1(OC)CCCCC1)C(=O)Nc1nnc(Cc2ccc(C#N)cc2)s1` [Compound 15, COC[C@@H](NC(=O)C1(CCCCC1)OC)C(=O)Nc2nnc(Cc3ccc(cc3)C#N)s2], the pIC50 against USP21 [1] was below 4.60; on USP21 [2], 4.67. The molecule also gave a solubility at 24 h in the data set “Aqueous solubility” of 181 µM (≈ 82.9 µg/mL). Further, the chromatographic logD in “log D measurement (HPLC)” amounted to 2.59.

As to `COC[C@@H](NC(=O)C1(C(F)F)CCCCC1)C(=O)Nc1nnc(Cc2ccc(C#N)cc2)s1` [Compound 16, COC[C@@H](NC(=O)C1(CCCCC1)C(F)F)C(=O)Nc2nnc(Cc3ccc(cc3)C#N)s2], in the data set “Aqueous solubility”, the solubility at 24 h is 131 µM (≈ 62.5 µg/mL). For the same molecule, the chromatographic logD in the data set “log D measurement (HPLC)” is 2.68.

The term Papp A→B denotes how fast a substance crosses the layer from the apical side. The low end stands for slow passage, the high end for fast passage. With `COC[C@@H](NC(=O)C1(C(F)(F)F)CCCCC1)C(=O)Nc1nnc(Cc2ccc(C#N)cc2)s1` [Compound 17, COC[C@@H](NC(=O)C1(CCCCC1)C(F)(F)F)C(=O)Nc2nnc(Cc3ccc(cc3)C#N)s2], in “in vitro” (2 μM, 2 h), the Papp A→B at 2 h, 2 µM was 8.2 ×10⁻⁶ cm/s. Also, the efflux ratio at 2 h, 2 µM in the data set “in vitro” (Papp B–A / Papp A–B, read-out: Caco-2 efflux ratio (ER)) was 1.5. Further, the solubility at 24 h in the data set “Aqueous solubility” was found to be 10.4 µM (≈ 5.17 µg/mL). In “log D measurement (HPLC)”, the logD7.5 turned out to be 3.0 and the chromatographic logD amounted to 2.95.

The molecule `CC(C)(O)[C@@H](NC(=O)C1(C(F)(F)F)CCCCC1)C(=O)Nc1nnc(Cc2ccc(C#N)cc2)s1` [Compound 19, CC(C)(O)[C@@H](NC(=O)C1(CCCCC1)C(F)(F)F)C(=O)Nc2nnc(Cc3ccc(cc3)C#N)s2] gave a solubility at 24 h in “Aqueous solubility” of 80.2 µM (≈ 40.9 µg/mL). For the same molecule, the chromatographic logD in the data set “log D measurement (HPLC)” turned out to be 2.9.
